Values after ≈ are worked out from the molar mass of the structure shown. Like-named read-outs stand apart in the source and are kept apart here.
Test system: M. smegmatis
Test: microbe, parasite or virus in culture
Format: cell-based, Mycobacterium smegmatis
Settings: for MIC: Mycolicibacterium smegmatis

## NNC(=O)c1ccncc1 [isoniazide]
Absence of acarbose, PpiB (Tet+), read-out: MIC
  MIC: 64 µg/mL (≈ 467 µM)
Absence of acarbose, VC (Tet+), read-out: MIC
  MIC: 16 µg/mL (≈ 117 µM)
Absence of cyclosporine A, PpiB (tet+), read-out: minimum inhibitory concentration (MIC)
  MIC: 64 µg/mL (≈ 467 µM)
Absence of cyclosporine A, […], read-out: minimum inhibitory concentration (MIC)
  MIC: 16 µg/mL (≈ 117 µM)
Presence of acarbose, PpiB (Tet+), read-out: MIC
  MIC: 32 µg/mL
Presence of cyclosporine A, PpiB (tet+), read-out: MIC
  MIC: 32 µg/mL
Presence of cyclosporine A, […], read-out: MIC
  MIC: 8 µg/mL

## CC[C@@H](CO)NCCN[C@@H](CC)CO [ethambutol]
Absence of cyclosporine A, […]
  concentration that inhibits culture: 4 µg/mL
Presence of cyclosporine A, […]
  inhibitory effect on culture: enhanced
